Active and inactive are the calls of the source. No rule for the calls is given here.
biological target: Kallikrein-5 (Homo sapiens) (UniProt Q9Y337); assay: kallikrein 5 (hK5) inhibition IC50 – biochemical, 1536-well, dose response (AID 1431); conditions: recombinant KLK5 enzyme activity, fluorogenic substrate
Sequence (Q9Y337 67-293 limits assumed): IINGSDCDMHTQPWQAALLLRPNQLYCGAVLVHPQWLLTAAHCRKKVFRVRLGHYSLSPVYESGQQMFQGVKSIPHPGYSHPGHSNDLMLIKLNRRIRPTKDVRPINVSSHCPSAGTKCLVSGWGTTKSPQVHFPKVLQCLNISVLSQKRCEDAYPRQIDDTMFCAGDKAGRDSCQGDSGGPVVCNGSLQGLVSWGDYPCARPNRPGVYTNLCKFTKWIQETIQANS

Structure (SMILES)	IC50
O=C1CC(Nc2ccccc2)C(=O)N1c1ccc(N2CCOCC2)cc1 (stereo unspecified)	> 50 µM (inactive)
CC1=C(C(=O)N2CCCCC2)C(c2cccs2)C2=C(CCCC2=O)N1 (stereo unspecified)	> 50 µM (inactive)
CC(C)(CO)N=Cc1c(O)[nH]c2ccccc12	> 50 µM (inactive)
O=C1CC(Sc2ccc(Cl)cc2)C(=O)N1c1ccc2c(c1)OCCO2 (stereo unspecified)	> 50 µM (inactive)
CC1(C)CC(=O)C(C=Nc2ccccc2Sc2ccccc2)=C(O)C1	> 50 µM (inactive)
O=C(N/N=C/c1cc([N+](=O)[O-])ccc1O)c1cccc2cc[nH]c12	> 50 µM (inactive)
Cc1c(-c2cccs2)[n+](=O)c2c(n1[O-])CCC2	> 50 µM (inactive)
Oc1ccc2ccccc2c1C=NC12CN3CCN(CN(C3)C1)C2	> 50 µM (inactive)
COc1ccc2c(c1)C(c1ccc(N3CCOCC3)cc1)=NNC(c1cccnc1)=N2	> 50 µM (inactive)
O=C(Nc1ccccc1)c1cccc(N2C(=O)CCC2=O)c1	> 50 µM (inactive)
O=C(N/N=C\c1cccc([N+](=O)[O-])c1O)C1COc2ccccc2O1 (stereo unspecified)	> 50 µM (inactive)
O=C1c2ccccc2C(=O)N1/N=C/c1ccc(O)c(O)c1O	> 50 µM (inactive)
CC(C)n1c(=O)c(C=Nc2ccc(Br)cc2)c(O)n(Cc2ccco2)c1=O	> 50 µM (inactive)
CCOC(=O)C1CCCN(C2CC(=O)N(c3ccc(C)cc3)C2=O)C1 (stereo unspecified)	> 50 µM (inactive)
O=c1c(/C=N/O)c(Nc2ccccc2)nc2ccccn12	> 50 µM (inactive)
O=C1C(C=NCCCN2CCOCC2)=C(O)c2ccccc21	> 50 µM (inactive)
COc1cccc(N2CCN(C3CC(=O)N(c4ccc(F)c(Cl)c4)C3=O)CC2)c1 (stereo unspecified)	> 50 µM (inactive)
Cc1cccc(NC2SC(=O)N(c3ccccc3)C2=O)c1 (stereo unspecified)	> 50 µM (inactive)
Cc1cc2c(C)nc(N/N=C/c3ccc([N+](=O)[O-])cc3)nc2o1	> 50 µM (inactive)
CCOC(=O)C1(C)C=C(Nc2cccc(OC)c2)C(=O)N1c1ccccc1 (stereo unspecified)	> 50 µM (inactive)
CC1CC(C)(C)n2c(O)c(N=NC(N)=S)c3cccc1c32 (stereo unspecified)	> 50 µM (inactive)
CC1=C(C(N)=O)C(c2ccccn2)n2nc(-c3ccccc3Cl)nc2N1 (stereo unspecified)	> 50 µM (inactive)

Structure (SMILES)	IC50
Cc1cc(C)n(CC2CC(=O)N(c3ccc(Cl)c(Cl)c3)C2=O)n1 (stereo unspecified)	> 50 µM (inactive)
COc1cccc(N2C(=O)CC(NNc3nc4ccccc4s3)C2=O)c1 (stereo unspecified)	> 50 µM (inactive)
COc1ccc(Oc2ccccc2/C=N/O)cc1	> 50 µM (inactive)
COc1ccc(N2C(=O)CC(Nc3cccc([N+](=O)[O-])c3)C2=O)cc1 (stereo unspecified)	> 50 µM (inactive)
Cc1ccc(NC2c3ncccc3C(=O)N2c2ccccc2C)cc1C (stereo unspecified)	5.53 µM
O=c1[nH]c(=O)n(Cc2ccco2)c(O)c1C=NCc1ccco1	> 50 µM (inactive)
CCOc1cc(/C=N/Nc2nc(Nc3ccccc3)nc(N3CCCCC3)n2)ccc1OCC(=O)O	> 50 µM (inactive)
COC(=O)c1[nH]c(C)c(/C(O)=C2\C(=O)C(=O)N(CCN(C)C)C2c2cccc(OC)c2OC)c1C (stereo unspecified)	> 50 µM (inactive)
COC(=O)c1cc(N2C(=O)C3C(C2=O)C2(C)C=CC3(C)O2)ccc1Cl (stereo unspecified)	> 50 µM (inactive)
Cc1ccccc1NC(=O)Cn1c(O)c(N=NC(=O)c2ccccc2O)c2ccccc21	> 50 µM (inactive)
CCC/S(C)=N/S(=O)(=O)c1ccc(C)cc1 (stereo unspecified)	> 50 µM (inactive)
Cc1cc(N2C(=O)CC(Cc3ccc(Cl)cc3)C2=O)no1 (stereo unspecified)	> 50 µM (inactive)
Oc1cccc(NC(=S)N=Nc2c(O)[nH]c3ccccc23)c1	> 50 µM (inactive)
N#CC1=C(N)NC(SCc2ccccc2)=C(C#N)C12CCCC2	> 50 µM (inactive)
COc1ccc(OC)c(/C=N/Nc2cc(C)nc(N3CCOCC3)n2)c1	> 50 µM (inactive)
COC(/C=C/Nc1ccc(Br)cc1)=C(C#N)C#N	> 50 µM (inactive)
CC(=O)C1=C(C)NC(C)=C(C(C)=O)C1c1cccs1	> 50 µM (inactive)
Cc1cc(N/N=C/c2ccc(O)cc2)nc(NS(=O)(=O)c2ccccc2)n1	> 50 µM (inactive)
O=C1CC(SCc2nc3ccccc3[nH]2)C(=O)N1c1ccc(F)cc1 (stereo unspecified)	> 50 µM (inactive)
CCCC(C)C1C(C#N)=C(N)Oc2c1c(=O)oc1ccccc21 (stereo unspecified)	> 50 µM (inactive)
COc1ccc2cc(C3C(C#N)=C(N)OC(C)=C3C(C)=O)c(Cl)nc2c1 (stereo unspecified)	> 50 µM (inactive)
CCOC(=O)C1=C(N)OC2=C(C(=O)CCC2)C12C(=O)N(CC(N)=O)c1ccccc12 (stereo unspecified)	> 50 µM (inactive)

Structure (SMILES)	IC50
COc1ccc(C2C(C(C)=O)=C(O)C(=O)N2c2nccs2)cc1OC (stereo unspecified)	26 µM
COc1ccc(C2C(C(=O)Nc3ccccc3OC)=C(C)Nc3ncnn32)cc1 (stereo unspecified)	> 50 µM (inactive)
CCOC(=O)C1=C(CC)Nc2ccccc2N=C1NC(=O)CCN1C(=O)C2CCCCC2C1=O (stereo unspecified)	> 50 µM (inactive)
CC1(C)CC(=O)CC(=NCC(=O)O)C1	> 50 µM (inactive)
COc1ccc(N2C(N)=C(C#N)C(c3cccnc3)C3=C2CC(C)(C)CC3=O)cc1 (stereo unspecified)	> 50 µM (inactive)
CC(=O)c1ccc(N2C(=O)C3C(C2=O)C(C(=O)c2ccc(Cl)cc2)N2CCCC32)cc1 (stereo unspecified)	> 50 µM (inactive)
N#C/C(=N\O)c1nc2ccccc2s1	> 50 µM (inactive)
O=C1CC(c2ccccc2)CC(O)=C1C=NCCN1CCN(C(=S)Nc2cccc(Cl)c2)CC1 (stereo unspecified)	> 50 µM (inactive)
Cc1ccc(Cn2c(O)c(N=NC(=S)Nc3ccccc3F)c3cc(S(=O)(=O)N4CCOCC4)ccc32)cc1	> 50 µM (inactive)
Cc1ccc(-c2[nH]nc3c2C(c2ccoc2)C(C#N)=C(N)O3)cc1C (stereo unspecified)	> 50 µM (inactive)
COc1ccc(CN2C(=O)c3cccnc3C2Nc2cc(Cl)ccc2OC)cc1 (stereo unspecified)	7.23 µM
COc1ccc2c(c1)C(c1ccc([N+](=O)[O-])cc1)=NNC(c1ccco1)=N2	> 50 µM (inactive)
CCC(=O)N1CCN(CCN=CC2=C(O)CC(C)(C)CC2=O)CC1	> 50 µM (inactive)
CCC(=O)N1c2ccccc2NC2=C(C(=O)CCC2)C1c1ccc(N(C)C)cc1 (stereo unspecified)	> 50 µM (inactive)
N#Cc1c(N)nc2c3c(sc(=N)c2c1N)NC(=O)CC3c1c(F)cccc1Cl (stereo unspecified)	> 50 µM (inactive)
COC(=O)c1sc(N2C(=O)C(O)=C(C(=O)c3ccc(C)o3)C2c2ccc(F)cc2)nc1C (stereo unspecified)	> 50 µM (inactive)
O=C(O)c1cc(/C=N\O)ccc1OCc1ccccc1	> 50 µM (inactive)
CCN(CC)C(=O)c1sc(NC(=O)Cc2ccccc2)c(C#N)c1C	> 50 µM (inactive)
COc1ccc(-c2[nH]nc3c2C(c2ccsc2)C(C#N)=C(N)O3)cc1 (stereo unspecified)	> 50 µM (inactive)
Cc1cc(/C(O)=C2\C(=O)C(=O)N(CCN(C)C)C2c2ccncc2)ccc1OCc1ccccc1 (stereo unspecified)	> 50 µM (inactive)
CCOC(=O)c1ccc(N=C(c2ccccc2)c2c(O)n(C)c(=O)n(C)c2=O)cc1	> 50 µM (inactive)
COc1cccc(/C(O)=C2/C(=O)C(=O)N(CCCN3CCOCC3)C2c2ccncc2)c1 (stereo unspecified)	46.3 µM

From PubChem BioAssay AID1431 (PCMD, 2008)
